Reference: paper PMC11940214, “The Antimicrobial Peptide D-CONGA-Q7 Eradicates Drug-Resistant E. coli by Disrupting Bacterial Cell Membranes” (Biology, 2025)
Converted amounts (≈) assume the structure as drawn. Where a SMILES comes first, the peptide text is derived from it. [ ]: non-standard residue; d: D form.

Key:
in vitro = format: cell-based, porcine; settings: pig
Description: Porcine small intestinal epithelial cells (IPEC-J2) were cultured in DMEM-F12 medium supplemented with 10% fetal bovine serum (TransGen Biotech, Beijing, China) and 1% penicillin–streptomycin (Beyotime Biotechnology, Shanghai, China). The cells were maintained in a humidified incubator at 37 °C with 5% CO2. Cells were passaged using 0.25% trypsin solution containing ethylenediaminetetraacetic acid (EDTA). Cells were seeded into 96-well plates at a density of 1 × 10⁴ cells per well. After 48 h, they were treated with varying concentrations of D-CONGA-Q7 and incubated with CCK-8 (Beyotime Biotechnology, Shanghai, China) for 1 h. The assay was measured using a […].

[1] = tested on: E. coli LN175 (mcr-1,NDM); format: cell-based, Escherichia coli
Description: (§1) The bacterial strains used in this study, including LN175, J27ab-2, K88, AD21R, and 21f54mr-1, were E. coli obtained from the Hunan Veterinary Engineering Research Center (Changsha, Hunan Province). Except for K88, all the strains were multidrug-resistant and carried multiple resistance genes, while K88 was a diarrhea-causing strain containing the ETEC gene.
(§2) The bacterial concentration was adjusted to 1 × 10^5 CFU/mL using a turbidimeter. Then, 100 μL of Mueller–Hinton Broth (MHB) broth was added to wells 1–11 of a 96-well plate, while 200 μL was added to well 12. Then, 100 μL of the drug was added to wells 1–11, which was followed by 100 μL of the bacterial suspension. Results were observed after incubation at 37 °C for 16–24 h.

erythrocyte = settings: cited from earlier work
Excerpt: D-CONGA was originally screened from a library of 28,000 peptides using high-throughput synthesis principles and host cell compatibility. […] This study explored the antimicrobial mechanis ...

[2] = tested on: E. coli strain LN175, K88, J27ab-2; test: Thermal and acid-base stability, read out as change in MIC; format: physicochemical, Escherichia coli; settings: 1.024 mg/mL solution, then adjusted back
Description: For thermal stability, the D-CONGA-Q7 was prepared as a 1.024 mg/mL solution and heated in a water bath at room temperature, 60, 65, 70, 75, 80, 90 and 100 °C for 1 h, and autoclaved at 121 °C for 15 min and then cooled to room temperature, respectively. Acid–base stability, 1.024 mg/mL of D-CONGA-Q7 solution was used to adjust its pH to 2–12 using HCl and NaOH, and the pH of each tube was adjusted back to the initial tube pH after 1 h. The adjustment of solution pH = 3.89 (pH = 3.89 is the pH of D-CONGA-Q7 itself when dissolved) included the above use of the untreated samples as a control.
The antimicrobial activity of D-CONGA-Q7 was evaluated by assessing changes in its MIC against strain LN175, K88, J27ab-2.

[3] = tested on: multidrug-resistant E. coli strains; format: cell-based, Escherichia coli
Description: as §1, §2

For `CC(C)C[C@@H](NC(=O)[C@@H](CCC(N)=O)NC(=O)[C@@H](CCCNC(=N)N)NC(=O)[C@@H](CCCNC(=N)N)NC(=O)[C@@H](C)NC(=O)[C@@H](Cc1c[nH]c2ccccc12)NC(=O)[C@@H](CCCNC(=N)N)NC(=O)[C@H](N)CCCNC(=N)N)C(=O)N[C@H](C)C(=O)N[C@H](Cc1ccccc1)C(=O)N[C@H](C)C(=O)N[C@H](Cc1ccccc1)C(=O)N[C@H](CCCNC(=N)N)C(=O)N[C@H](CCCNC(=N)N)C(N)=O` [D-CONGA-Q7] (H-[dR][dR][dW][dA][dR][dR][dQ][dL][dA][dF][dA][dF][dR][dR]-NH2), the IC50 (in vitro) is listed as 188 µg/mL (≈ 99.8 µM), the MIC [1] is listed as 4 µg/mL (≈ 2.12 µM) and the erythrocyte hemolytic activity (erythrocyte) is listed as “minimal erythrocyte hemolytic activity”. For the same compound, the “antimicrobial activity after exposure to pH 12 (acid-base stability)” value ([2]; pH 12, 1 h, read-out MIC) was “reduction in activity”, the “antimicrobial activity after exposure to pH 2 to 11 (acid-base stability)” value ([2]; pH between 2 and 11 with HCl/NaOH, 1 h, read-out MIC against LN175, K88, J27ab-2) was “retained its antimicrobial activity” and the “MIC values for all strains tested” value [3] was “less than or equal to 4 μg/mL”.
